{"source": "paper PMC9166766", "about": "(Experimental & Molecular Medicine, 2022)", "key": {"NFATC2 dephosphorylation": {"system": "NFATC2 dephosphorylation", "assay": "NFAT mobility shifting assay in Jurkat T cells", "format": "cell-based", "conditions": "HA-mCherry-tagged peptides, PMA and ionomycin 2 h, n = 7", "protocol": "Jurkat T cells expressing GST-tagged peptides were treated with PMA and ionomycin for activation. […] For dephosphorylation of NFATC2, Jurkat T cells were treated with PMA and ionomycin for 2 h. c Hyper- and hypophosphorylated NFATC2 of b was measured using ImageJ, and the hypo/hyper ratio was calculated (n = 7). d Snapshot images of the activated Jurkat T cells expressing the indicated peptides and tNFATC2 were obtained using confocal microscopy. The expression and localization of peptides and tNFATC2 are shown as mCherry (red) and EGFP (green), respectively. Nuclei were stained with Hoechst (blue). Scale bar, 50 μm e Nuclear-localized tNFATC2 was measured by calculating the colocalization ratio between Hoechst (M1) and EGFP (M2). […] Statistical differences were determined using a two-tailed Student’s t-test (a, c) or one-way ANOVA (e). ***p < 0.001, NC negative control."}, "[1]": {"system": "Jurkat T cells (PMA and ionomycin-induced gene expression)", "assay": "mRNA sequencing of activated Jurkat T cells", "format": "cell-based, human", "method": "We then extracted RNA from these cells. Construction of the cDNA library and next-generation sequencing was performed at LAS (Gimpo, Korea). We sequenced all samples on an Illumina NextSeq 500 system with 75 paired-end reads. For the RNA sequencing analysis, reads for each sample were aligned to the human genome (GRCh37/hg19 genome assembly) using STAR 2.4.0.1[25] with default settings. We used HOMER tools to quantify and normalize the defined genes in RefSeq transcripts. FPKM normalized genes were hierarchically clustered using Cluster3.0[26]. We visualized refined data with Java Treeview (http://jtreeview.sourceforge.net). We conducted gene ontology analysis of each cluster using the DAVID web tool (https://david.ncifcrf.gov). Finally, we visualized the expression levels of target genes using the Integrative Genomics Viewer (http://software.broadinstitute.org/software/igv). The raw data were submitted to the NCBI Gene Expression Omnibus under accession number GSE185561.\nFig. 3 The CABIN1 peptide inhibits T-cell activation. a Heatmap of altered genes affected by FK506 treatment or CABIN1 peptide expression upon T-cell activation. b Gene Ontology analysis of cluster III. c mRNA expression levels of genes included in cluster III. d qRT-PCR data of genes in c. The experiment was independently repeated at least three times, and the data are presented as the mean ± standard deviation. Statistical differences were determined using two-tailed Student’s t-test. *p < 0.05, **p < 0.01, ***p < 0.001, NC negative control."}}, "data": [{"compound": "C=CC[C@@H]1/C=C(\\C)C[C@H](C)C[C@H](OC)[C@H]2O[C@@](O)(C(=O)C(=O)N3CCCC[C@H]3C(=O)O[C@H](/C(C)=C/[C@@H]3CC[C@@H](O)[C@H](OC)C3)[C@H](C)[C@@H](O)CC1=O)[C@H](C)C[C@@H]2OC", "note": "[FK506, reference compound]", "values": [{"measurement": "NFATC2 dephosphorylation / band shift", "setting": "NFATC2 dephosphorylation", "value": "inhibited the NFATC2 band shift"}, {"measurement": "CD27 and CD70 expression", "setting": "[1]; Jurkat, PMA and ionomycin 8 h", "value": "repressed"}, {"measurement": "RNA levels of T-cell activation markers (IL2, IL3, NFATC1, CCL4, CCL20, CXCL8)", "setting": "[1]; Jurkat, PMA and ionomycin 8 h", "value": "reduced the RNA levels"}, {"measurement": "TM4SF1 expression", "setting": "[1]; P+I 8 h, NC 0, NC_P+I 3.268", "value": 0.439, "unit": "FPKM"}, {"measurement": "CD200 expression", "setting": "[1]; P+I 8 h, NC 0, NC_P+I 3.759", "value": 0, "unit": "FPKM"}, {"measurement": "ZP4 expression", "setting": "[1]; P+I 8 h, NC 0, NC_P+I 6.38", "value": 0.462, "unit": "FPKM"}, {"measurement": "CCL3L1 expression", "setting": "[1]; P+I 8 h, NC 0, NC_P+I 6.448", "value": 0, "unit": "FPKM"}, {"measurement": "CCL3L3 expression", "setting": "[1]; P+I 8 h, NC 0, NC_P+I 6.524", "value": 0, "unit": "FPKM"}, {"measurement": "CCL1 expression", "setting": "[1]; P+I 8 h, NC 0, NC_P+I 9.86", "value": 0, "unit": "FPKM"}, {"measurement": "NR4A2 expression", "setting": "[1]; P+I 8 h, NC 0, NC_P+I 10.173", "value": 0.04, "unit": "FPKM"}, {"measurement": "CCL4L2 expression", "setting": "[1]; P+I 8 h, NC 0, NC_P+I 12.758", "value": 0.087, "unit": "FPKM"}, {"measurement": "CCL4L1 expression", "setting": "[1]; P+I 8 h, NC 0, NC_P+I 13.27", "value": 0.087, "unit": "FPKM"}, {"measurement": "CSF2 expression", "setting": "[1]; P+I 8 h, NC 0, NC_P+I 23.497", "value": 0, "unit": "FPKM"}, {"measurement": "XCL1 expression", "setting": "[1]; P+I 8 h, NC 0, NC_P+I 49.113", "value": 0, "unit": "FPKM"}, {"measurement": "CCL3 expression", "setting": "[1]; P+I 8 h, NC 0, NC_P+I 52.239", "value": 0, "unit": "FPKM"}, {"measurement": "CCL20 expression", "setting": "[1]; P+I 8 h, NC 0, NC_P+I 59.393", "value": 0, "unit": "FPKM"}, {"measurement": "IL3 expression", "setting": "[1]; P+I 8 h, NC 0, NC_P+I 229.054", "value": 0.062, "unit": "FPKM"}, {"measurement": "CCL4 expression", "setting": "[1]; P+I 8 h, NC 0, NC_P+I 247.287", "value": 0, "unit": "FPKM"}, {"measurement": "IL2 expression", "setting": "[1]; P+I 8 h, NC 0, NC_P+I 397.807", "value": 0.287, "unit": "FPKM"}, {"measurement": "C3 expression", "setting": "[1]; P+I 8 h, NC 0.006, NC_P+I 3.907", "value": 0.489, "unit": "FPKM"}, {"measurement": "TNS3 expression", "setting": "[1]; P+I 8 h, NC 0.008, NC_P+I 13.196", "value": 0.678, "unit": "FPKM"}, {"measurement": "PLS3 expression", "setting": "[1]; P+I 8 h, NC 0.019, NC_P+I 4.717", "value": 0.052, "unit": "FPKM"}, {"measurement": "CREB5 expression", "setting": "[1]; P+I 8 h, NC 0.031, NC_P+I 4.533", "value": 0.577, "unit": "FPKM"}, {"measurement": "IRF4 expression", "setting": "[1]; P+I 8 h, NC 0.034, NC_P+I 8.439", "value": 0.423, "unit": "FPKM"}, {"measurement": "CXCL8 expression", "setting": "[1]; P+I 8 h, NC 0.037, NC_P+I 26.755", "value": 0.937, "unit": "FPKM"}, {"measurement": "SLAMF1 expression", "setting": "[1]; P+I 8 h, NC 0.042, NC_P+I 5.663", "value": 0.217, "unit": "FPKM"}, {"measurement": "TNFSF14 expression", "setting": "[1]; P+I 8 h, NC 0.045, NC_P+I 69.958", "value": 1.023, "unit": "FPKM"}, {"measurement": "IL21R-AS1 expression", "setting": "[1]; P+I 8 h, NC 0.048, NC_P+I 23.616", "value": 1.927, "unit": "FPKM"}, {"measurement": "XCL2 expression", "setting": "[1]; P+I 8 h, NC 0.056, NC_P+I 70.747", "value": 0, "unit": "FPKM"}, {"measurement": "LIF expression", "setting": "[1]; P+I 8 h, NC 0.063, NC_P+I 3.697", "value": 0.143, "unit": "FPKM"}, {"measurement": "SHC4 expression", "setting": "[1]; P+I 8 h, NC 0.069, NC_P+I 4.391", "value": 0.663, "unit": "FPKM"}, {"measurement": "RGS16 expression", "setting": "[1]; P+I 8 h, NC 0.077, NC_P+I 29.102", "value": 1.172, "unit": "FPKM"}, {"measurement": "IL21R expression", "setting": "[1]; P+I 8 h, NC 0.1, NC_P+I 34.712", "value": 2.244, "unit": "FPKM"}, {"measurement": "CRTAM expression", "setting": "[1]; P+I 8 h, NC 0.104, NC_P+I 100.175", "value": 3.325, "unit": "FPKM"}, {"measurement": "ZNF704 expression", "setting": "[1]; P+I 8 h, NC 0.107, NC_P+I 4.985", "value": 0.014, "unit": "FPKM"}, {"measurement": "NTRK1 expression", "setting": "[1]; P+I 8 h, NC 0.167, NC_P+I 7.941", "value": 0.836, "unit": "FPKM"}, {"measurement": "PHEX expression", "setting": "[1]; P+I 8 h, NC 0.188, NC_P+I 17.377", "value": 0.213, "unit": "FPKM"}, {"measurement": "SORBS1 expression", "setting": "[1]; P+I 8 h, NC 0.196, NC_P+I 5.08", "value": 0.4, "unit": "FPKM"}, {"measurement": "TIAM2 expression", "setting": "[1]; P+I 8 h, NC 0.255, NC_P+I 4.095", "value": 0.27, "unit": "FPKM"}, {"measurement": "CRIM1 expression", "setting": "[1]; P+I 8 h, NC 0.268, NC_P+I 3.029", "value": 0.305, "unit": "FPKM"}, {"measurement": "SERPINB2 expression", "setting": "[1]; P+I 8 h, NC 0.28, NC_P+I 85.882", "value": 2.905, "unit": "FPKM"}, {"measurement": "CCND2 expression", "setting": "[1]; P+I 8 h, NC 0.321, NC_P+I 6.436", "value": 0.558, "unit": "FPKM"}, {"measurement": "CXCR3 expression", "setting": "[1]; P+I 8 h, NC 0.604, NC_P+I 14.322", "value": 0.503, "unit": "FPKM"}, {"measurement": "ISM1 expression", "setting": "[1]; P+I 8 h, NC 0.798, NC_P+I 56.893", "value": 0.726, "unit": "FPKM"}, {"measurement": "C10orf54 expression", "setting": "[1]; P+I 8 h, NC 0.84, NC_P+I 7.506", "value": 0.382, "unit": "FPKM"}, {"measurement": "CSF1 expression", "setting": "[1]; P+I 8 h, NC 0.848, NC_P+I 13.43", "value": 1.706, "unit": "FPKM"}, {"measurement": "SLC35E4 expression", "setting": "[1]; P+I 8 h, NC 0.887, NC_P+I 9.069", "value": 0.952, "unit": "FPKM"}, {"measurement": "ZNF827 expression", "setting": "[1]; P+I 8 h, NC 0.975, NC_P+I 3.401", "value": 1.521, "unit": "FPKM"}, {"measurement": "CD70 expression", "setting": "[1]; P+I 8 h, NC 1.101, NC_P+I 61.146", "value": 3.005, "unit": "FPKM"}, {"measurement": "PAM expression", "setting": "[1]; P+I 8 h, NC 1.154, NC_P+I 5.577", "value": 1.483, "unit": "FPKM"}, {"measurement": "FOXO1 expression", "setting": "[1]; P+I 8 h, NC 1.167, NC_P+I 8.247", "value": 1.77, "unit": "FPKM"}, {"measurement": "IRF8 expression", "setting": "[1]; P+I 8 h, NC 1.168, NC_P+I 14.813", "value": 1.19, "unit": "FPKM"}, {"measurement": "SCHIP1 expression", "setting": "[1]; P+I 8 h, NC 1.25, NC_P+I 3.933", "value": 1.535, "unit": "FPKM"}, {"measurement": "FOSL2 expression", "setting": "[1]; P+I 8 h, NC 1.294, NC_P+I 7.508", "value": 2.204, "unit": "FPKM"}, {"measurement": "TNFSF9 expression", "setting": "[1]; P+I 8 h, NC 1.393, NC_P+I 7.107", "value": 2.568, "unit": "FPKM"}, {"measurement": "IQCJ-SCHIP1 expression", "setting": "[1]; P+I 8 h, NC 1.402, NC_P+I 4.253", "value": 1.657, "unit": "FPKM"}, {"measurement": "STAT5A expression", "setting": "[1]; P+I 8 h, NC 1.417, NC_P+I 9.105", "value": 3.347, "unit": "FPKM"}, {"measurement": "TDRD9 expression", "setting": "[1]; P+I 8 h, NC 1.428, NC_P+I 25.902", "value": 1.245, "unit": "FPKM"}]}]}
